Test results as given in US5091539A, “Azolyl cycloalkanol derivatives and agricultural fungicides” (Shionogi & Co., Ltd., priority 1984, dated 1992).
Converted amounts (≈) assume the structure as drawn.

Experiments:
Sphaerotheca fuliginea = experiment: Control test to powdery mildew of cucumber (foliar and soil treatment); type: in vivo; details: for Foliar Treatment, Curative Effect / Foliar Treatment, Protective Effect / Soil Treatment, Protective Effect: index 0-10
Method: (1) Seeds of cucumber (Cultivar: Matsukaze) were sown in a pot of 9 cm in diameter and the pots were kept in a green house until the plant was grown for 2-3 leaf stage. The first leaf was sprayed with, (i) 3 ml each of solutions containing the test compound at the prescribed concetrations and dried by the air (foliar treatment). Inoculation of spore suspension of Sphaerotheca fuliginea by spraying was practised 2 days before the treatment (curative effect) or 1 day after the treatment (protective effect). Alternatively, (ii) 5 ml of the solution was applied at the root of the seedlings (soil treatment). The pots were kept in a greenhouse for 2 days and inoculation was practised in the same manner noted above. (iii) After sprayed with 3 ml of a solution of the test compound at a concentration of 125 ppm and dried by the air, the treated pots were set in a greenhouse. Untreated pots were placed next to the treated pots. Those treated and untreated plants were inoculated with spore suspension. Protective effect of the test compounds by vapor was thus checked. The effect was examined 14 days after the inoculation of the spores.
0: Disease sign is observed on the whole leaf.
3: Disease sign is observed on the leaf in about 50%.
5: Disease sign is observed on the leaf in about 30%.
7: Disease sign is observed on the leaf in about 20%.
9: a little disease sign is observed.
(§1) (1) Test methods and evaluation are the same as those in Tests 2, 4 and 6.

Fusarium oxysporum = experiment: Control test to damping-off of cucumber (Fusarium oxysporum); type: in vivo; details: 500 ppm, soil drench, 14 days
Method: (§2) (1) The fungus causing damping-off of cucumber seedlings, Rhizoctonia solani or Fusarium oxysporum was cultured on a wheat bran medium at 28° C. for 5 days, which was mixed with sterilized soil and cultured for 2 days to prepare the inoculum. Sterilized soil (150 g) was put into a pot of 9 cm in diameter. The surface of the spot was covered with the above inoculum. […] Twenty cucumber seeds (Cultivar: Matsukaze) were sown 2 days after. The pots were kept at 30°±2° C. for 14 days. The infection was observed 14 days after and disease degree and percent disease degree were obtained by setting an evaluation index for each disease sympton.
(§3) (2) Evaluation [formula] wherein a: number of seeds without germination b: number of seedlings showing damping-off c: number of wilted seedlings d: number of seedlings being a little brownish in cotyledons or at the bottom of the stem e: number of uninfected seedlings [formula] wherein a: number of seeds without germination or seedlings with damping-off b: number of wilted seedlings c: number of seedlings being a little brownish in cotyledons or at the bottom of the stem d: number of uninfected seedlings [formula]

Diaporthe citri = experiment: Anti-fungal activity in vitro; type: cell-based; details: 48 h, GY medium, 28° C., 2 days
Method: (§4) (1) Each test compound was diluted by two-fold dilution with GY medium (2% glucose and 0.4% yeast extract) containing 0.01% Tween 80 (trademark). Every diluted solution was inoculated with spore suspension (10^5-5 spores/ml) of Alternaria kikuchiana or a hyphae disk with agar (4 mm in diameter) of other fungi and incubated at 28° C. for 2 days.

Monilinia fructicola = experiment: Anti-fungal activity in vitro; type: cell-based; details: 48 h, GY medium, 28° C., 2 days
Method: as §4

Alternaria kikuchiana = experiment: Anti-fungal activity in vitro; type: cell-based; details: 48 h, GY medium, 28° C., 2 days, spore suspension
Method: as §4

Cochiobolus sativus = experiment: Anti-fungal activity in vitro; type: cell-based; details: 48 h; GY medium, 28° C., 2 days
Method: as §4

Pyrenophora graminea = experiment: Anti-fungal activity in vitro; type: cell-based; details: 48 h, GY medium, 28° C., 2 days
Method: as §4

Ustilago nuda = experiment: Anti-fungal activity in vitro; type: cell-based; details: 48 h, GY medium, 28° C., 2 days
Method: as §4

Vasla ceratosperma = experiment: Anti-fungal activity in vitro; type: cell-based; details: 48 h; GY medium, 28° C., 2 days
Method: as §4

Corticium rolfsii = experiment: Anti-fungal activity in vitro; type: cell-based; details: Agroathelia rolfsii, 48 h; GY medium, 28° C., 2 days
Method: as §4

Rhizoctonia solani = experiment: Control test to damping-off of cucumber (Rhizoctonia solani); type: in vivo; details: soil drench, 14 days
Method: as §2, §3

Sclerotinia sclerotiorum = experiment: Control test to Sclerotinia rot of cucumber; type: in vivo
Source text: (1) This test was practised in the same manner as in the above test, control test of Botrytis rot (gray mold) of cucumber, except for using the mycelium of Sclerotinia sclerotiorum as inoculm. The same as in test 2.

Botrytis cinerea = experiment: Control test of Botrytis rot (gray mold) of cucumber; type: in vivo
Method: (1) Seedlings of cucumber (Cultivar: Matsukaze) were planted in a pot of 9 cm in diameter. The first leaf was sprayed with 3 ml each of solutions containing the test compound at the concentration of 125 or 31.3 ppm and the plant was dried by the air. After inoculation of the spores of Botrytis cinerea, the plants were kept at 20°±2° C. and 90-100% humidity ((i) protective spraying). Alternatively, the spores were inoculated at first and when the leaves suffered a little (about 2 days after), the solutions of the test compounds were sprayed ((ii) curative spraying). Evaluation was practised 3 days after the inoculation. Percent disease control was calculated by the ratio of diameter of diseased area in treated and untreated plants.
as §1

Cladosporium herbarum = experiment: Anti-fungal activity in vitro; type: cell-based; details: 48 h, GY medium, 28° C., 2 days
Method: as §4

Puccinia coronata = experiment: Control test of crown rust of oat; type: in vivo
Method: (1) Young oats (Cultivar: Pc38) grown in pots in a greenhouse were (i) sprayed with 10 ml each of solution of the test compounds at a prescribed concentration and after air-drying, they were inoculated with 15 mg of uredospores of Puccinia coronata per 20 pots (protective spraying) or (ii) sprayed with the test solution 3 days after inoculation of uredospores. After each plant was kept at 20°-25° C. in a greenhouse for 2 weeks, number of uredia was counted on the first leaf.

SMILES	MIC (Diaporthe citri)	MIC (Monilinia fructicola)	MIC (Alternaria kikuchiana)	MIC (Cochiobolus sativus)	MIC (Pyrenophora graminea)	MIC (Ustilago nuda)	MIC (Vasla ceratosperma)	MIC (Corticium rolfsii)	Percent Disease Control, Curative Spraying (Sclerotinia sclerotiorum; 31.3 ppm)	Percent Disease Control, Protective Spraying (Sclerotinia sclerotiorum; 31.3 ppm)	Percent Disease Control, Curative Spraying (Sclerotinia sclerotiorum; 125 ppm)	Percent Disease Control, Protective Spraying (Sclerotinia sclerotiorum; 125 ppm)	Foliar Treatment, Curative Effect (Sphaerotheca fuliginea; second Table 4, 0.5 ppm)	Foliar Treatment, Protective Effect (Sphaerotheca fuliginea; second Table 4, 0.5 ppm)	Soil Treatment, Protective Effect (Sphaerotheca fuliginea; second Table 4, 0.5 ppm)	Foliar Treatment, Curative Effect (Sphaerotheca fuliginea; second Table 4, 2.0 ppm)	Foliar Treatment, Protective Effect (Sphaerotheca fuliginea; second Table 4, 2.0 ppm)	Soil Treatment, Protective Effect (Sphaerotheca fuliginea; second Table 4, 2.0 ppm)	Foliar Treatment, Curative Effect (Sphaerotheca fuliginea; second Table 4, 7.8 ppm)	MIC (Cladosporium herbarum)	further results
O[C@@]1(c2sc(Cl)c(Cl)c2Cl)CCCC[C@H]1n1cncn1 (relative stereo) [Compound 12, cis-1-(3,4,5-trichloro-2-thienyl)-2-(1,2,4-triazol-1-yl)cyclohexanol]	3.13 µg/mL (≈ 8.88 µM)	1.56 µg/mL (≈ 4.42 µM)	25 µg/mL (≈ 70.9 µM)	3.13 µg/mL (≈ 8.88 µM)	6.25 µg/mL (≈ 17.7 µM)	6.25 µg/mL (≈ 17.7 µM)	3.13 µg/mL (≈ 8.88 µM)	1.56 µg/mL (≈ 4.42 µM)	–	–	–	–	–	–	–	–	–	–	–	–	Protective Index, Foliar Treatment (Sphaerotheca fuliginea; first Table 4, 125 ppm, foliar, 14 days): 10; Protective Index, Soil Treatment (Sphaerotheca fuliginea; first Table 4, 125 ppm, soil, 14 days): 10; Disease Degree (Fusarium oxysporum): 17; Percent Disease Control (Fusarium oxysporum): 83%; Disease Degree (Rhizoctonia solani; 500 ppm): 0; Percent Disease Control (Rhizoctonia solani; 500 ppm): 100%
O[C@@]1(c2ccc(Cl)cc2)CCCCC[C@H]1n1cncn1 (relative stereo) [Compound 24, cis-1-(4-chlorophenyl)-2-(1,2,4-triazol-1-yl)cycloheptanol]	25 µg/mL (≈ 85.7 µM)	0.2 µg/mL (≈ 0.685 µM)	12.5 µg/mL (≈ 42.8 µM)	6.25 µg/mL (≈ 21.4 µM)	12.5 µg/mL (≈ 42.8 µM)	1.56 µg/mL (≈ 5.35 µM)	–	50 µg/mL (≈ 171 µM)	96%	100%	97%	100%	10	5 (Disease sign is observed on the leaf in about 30%.)	0	10	10	0	10	6.25 µg/mL (≈ 21.4 µM)	Foliar Treatment, Protective Effect (Sphaerotheca fuliginea; second Table 4, 7.8 ppm): 10; Soil Treatment, Protective Effect (Sphaerotheca fuliginea; second Table 4, 7.8 ppm): 10; Foliar Treatment, Curative Effect (Sphaerotheca fuliginea; second Table 4, 31.3 ppm): 10; Foliar Treatment, Protective Effect (Sphaerotheca fuliginea; second Table 4, 31.3 ppm): 10; Soil Treatment, Protective Effect (Sphaerotheca fuliginea; second Table 4, 31.3 ppm): 10; Percent Disease Control, Curative Spraying (Botrytis cinerea; Table 2, 31.3 ppm): 86%; Percent Disease Control, Protective Spraying (Botrytis cinerea; Table 2, 31.3 ppm): 100%; Percent Disease Control, Curative Spraying (Botrytis cinerea; Table 2, 125 ppm): 94%; Percent Disease Control, Protective Spraying (Botrytis cinerea; Table 2, 125 ppm): 100%
O[C@@]1(c2ccccc2Cl)CCCC[C@H]1n1cncn1 (relative stereo) [Compound 32]	3.13 µg/mL (≈ 11.3 µM)	0.39 µg/mL (≈ 1.4 µM)	3.13 µg/mL (≈ 11.3 µM)	3.13 µg/mL (≈ 11.3 µM)	1.56 µg/mL (≈ 5.62 µM)	3.13 µg/mL (≈ 11.3 µM)	–	12.5 µg/mL (≈ 45 µM)	86%	72%	94%	100%	7 (Disease sign is observed on the leaf in about 20%.)	0	0	10	9	0	10	1.56 µg/mL (≈ 5.62 µM)	Foliar Treatment, Protective Effect (Sphaerotheca fuliginea; second Table 4, 7.8 ppm): 10; Soil Treatment, Protective Effect (Sphaerotheca fuliginea; second Table 4, 7.8 ppm): 10; Foliar Treatment, Curative Effect (Sphaerotheca fuliginea; second Table 4, 31.3 ppm): 10; Foliar Treatment, Protective Effect (Sphaerotheca fuliginea; second Table 4, 31.3 ppm): 10; Soil Treatment, Protective Effect (Sphaerotheca fuliginea; second Table 4, 31.3 ppm): 10; Disease Degree (Rhizoctonia solani; 31.3 ppm): 10; Percent Disease Control (Rhizoctonia solani; 31.3 ppm): 90%
OC(c1ccc(Cl)cc1)(c1cncnc1)c1ccccc1Cl (centres unmarked) [Fenarimol, reference compound]	> 50 µg/mL	3.13 µg/mL (≈ 9.45 µM)	6.25 µg/mL (≈ 18.9 µM)	1.56 µg/mL (≈ 4.71 µM)	12.5 µg/mL (≈ 37.7 µM)	25 µg/mL (≈ 75.5 µM)	12.5 µg/mL (≈ 37.7 µM)	25 µg/mL (≈ 75.5 µM)	–	–	–	–	–	–	–	–	–	–	–	> 50 µg/mL	Percent Disease Control, Curative Spraying (Puccinia coronata; 12.5 ppm): 75%; Percent Disease Control, Protective Spraying (Puccinia coronata; 12.5 ppm): 62%; Percent Disease Control, Curative Spraying (Puccinia coronata; 25 ppm): 92%; Percent Disease Control, Protective Spraying (Puccinia coronata; 25 ppm): 89%; Percent Disease Control, Curative Spraying (Puccinia coronata; 50 ppm): 98%; Percent Disease Control, Protective Spraying (Puccinia coronata; 50 ppm): 100%
